From ChEMBL document CHEMBL1147140, “Strongylophorine-26, an inhibitor of cancer cell Invasion: SAR revealed by synthesis of analogues” (J Nat Prod, 2007)
Converted amounts (≈) assume the structure as drawn. The source made the active and inactive calls. No cut-off for these calls is given here.

Tests used:
[1] = system: MDA-MB-231; assay: Cytotoxicity against human MDA-MB-231 cells; assay type: cell-based
[2] = system: MDA-MB-231; assay: Anti-invasive activity against human MDA-MB-231 cells at <= 0.3 ug/ml; assay type: functional, cell-based

Compound	Activity [2]	other results
COC1=CC(=O)C=C(C[C@H]2[C@]3(C)CC[C@H]4C(C)(C)CCC[C@]4(C)[C@H]3CC[C@]2(C)O)C1=O (stereo in doubt; (+)-3) [listing 1 of 2 here]	–	IC50 ([1]; mda-mb-231): 0.3 µg/mL (≈ 0.7 µM)
COC1=CC(=O)C=C(C[C@H]2[C@]3(C)CC[C@H]4C(C)(C)CCC[C@]4(C)[C@H]3CC[C@]2(C)O)C1=O (stereo in doubt; (+)-3) [listing 2 of 2 here]	inactive	–
COC1=CC(=O)C=C(C[C@H]2[C@]3(C)CC[C@H]4C(C)(C)CCC[C@]4(C)[C@H]3CC[C@]2(C)O)C1=O (stereo in doubt; (-)-3) [listing 1 of 2 here]	–	IC50 ([1]; Homo sapiens, MDA-MB-231, read-out: IC50): 0.3 µg/mL (≈ 0.7 µM)
COC1=CC(=O)C=C(C[C@H]2[C@]3(C)CC[C@H]4C(C)(C)CCC[C@]4(C)[C@H]3CC[C@]2(C)O)C1=O (stereo in doubt; (-)-3) [listing 2 of 2 here]	inactive	–
